Measured values reported in US12616201B2, “Herbicidal compositions comprising isoxaflutole” (BASF SE, priority 2024, dated 2026).

Tests used:
Abuthilon theophrasti = assay: Post-emergence application in field trials, ABUTH; assay type: in vivo; conditions: ABUTH growth stage 14-16, 18 g ai/ha
Description: (§1) In the examples below, using the method of S. R. Colby (1967) “Calculating synergistic and antagonistic responses of herbicide combinations”, Weeds 15, p. 22ff., the value E, which is expected if the activity of the individual active compounds is only additive, was calculated:
(§2) [formula] • where • X=percent activity using active herbicide A at an application rate a; • Y=percent activity using active herbicide B (i.e. isoxaflutole) at an application rate b; • E=expected activity (in %) by A+B at application rates a+b.
(§3) If the value found experimentally is higher than the value E calculated according to Colby, a synergistic effect is present.
(§4) On field test sites, natural weed infestation or seeded weeds were treated post-emergence of the weeds.
(§5) In the field trials, the weeds were treated as indicated below.
(§6) In the following experiments, the herbicidal activity for the individual herbicidal compositions (solo and mixture applications) was assessed at the indicated days after treatment (DAT). The assessments for the damage on undesired weeds caused by the composition was carried out using a scale from 0 to 100%, compared to the untreated control plants. Here, 0 means no damage and 100 means complete destruction of the plants.
(§7) Herbicide A-1 and isoxaflutole (240 g/l SC, Balance Flexx®) were, together with addition of 0.25 v/v % MSO (methylated sed oil) as adjuvant, formulated in water as distribution medium (water volume 200 l/ha) and sprayed with commercial flat fan nozzles.

Amaranthus hybridus = assay: Post-emergence application in field trials, AMACH; assay type: in vivo; conditions: Table 1.1; AMACH growth stage 35; 21 DAT; 25 g ai/ha
Description: as §1, §2, §3, §4, §5
(§8) In the following experiments, the herbicidal activity for the individual herbicidal compositions (solo and mixture applications) was assessed at the indicated days after treatment (DAT). The assessments for the damage on undesired weeds caused by the composition was carried out using a scale from 0 to 100%, compared to the untreated control plants. Here, 0 means no damage and 100 means complete destruction of the plants. […]

Amaranthus retroflexus = assay: Post-emergence application in field trials, AMARE; assay type: in vivo; conditions: Table 3.4; AMARE growth stage 31-49; 42 DAT; 18 g ai/ha
Description: as §1, §2, §3, §4, §5, §6, §7
(§9) Herbicide A-1, isoxaflutole (240 g/l SC), saflufenacil (342 g/l) and pyroxasulfone were, together with addition of 0.25 v/v % MSO (methylated sed oil) as adjuvant, formulated in water as distribution medium (water volume 200 l/ha) and sprayed with commercial flat fan nozzles.

Spermacoce latifolia = assay: Post-emergence application in field trials, BOILF; assay type: in vivo; conditions: Table 1.1, BOILF growth stage 40, 21 DAT
Description: as §1, §2, §3, §4, §5, §6
Herbicide A-1 and isoxaflutole (75% WG) were, together with addition of 0.5 v/v % MSO (methylated sed oil) as adjuvant, formulated in water as distribution medium (water volume 200 l/ha) and sprayed with commercial flat fan nozzles.

Datura stramonium = assay: Post-emergence application in field trials, DATST; assay type: in vivo
Description: as §1, §2, §3, §4, §5, §6
(§10) Herbicide A-1 and isoxaflutole (240 g/l SC) were, together with addition of 0.25 v/v % MSO (methylated sed oil) as adjuvant, formulated in water as distribution medium (water volume 200 l/ha) and sprayed with commercial flat fan nozzles.
(§11) Herbicide A-1, isoxaflutole (240 g/l SC) and saflufenacil (342 g/l) were, together with addition of 0.25 v/v % MSO (methylated sed oil) as adjuvant, formulated in water as distribution medium (water volume 200 l/ha) and sprayed with commercial flat fan nozzles.

Echinochloa crus-galli = assay: Post-emergence application in field trials, ECHCG; assay type: in vivo
Description: as §1, §2, §3, §4, §5, §6, §10, §7, §11, §9

Euphorbia heterophylla = assay: Post-emergence application in field trials, EPHHL; assay type: in vivo; conditions: Table 1.1; EPHHL growth stage 35; 21 DAT; 50 g ai/ha
Description: as §1, §2, §3, §4, §5, §8

Glycine max = assay: Post-emergence application in field trials, GLXMA; assay type: in vivo; conditions: GLXMA growth stage 13
Description: as §1, §2, §3, §4, §5, §6, §10

Hordeum vulgare = assay: Post-emergence application in field trials, HORVX; assay type: in vivo; conditions: HORVX growth stage 23-29
Description: as §1, §2, §3, §4, §5, §6, §7

Ipomoea triloba = assay: Post-emergence application in field trials, IPOTR; assay type: in vivo; conditions: Table 1.1; IPOTR growth stage 35; 21 DAT; 25 g ai/ha
Description: as §1, §2, §3, §4, §5, §8

Setaria verticillata = assay: Post-emergence application in field trials, SETVE; assay type: in vivo; conditions: SETVE growth stage 21-23, 12.5 g ai/ha
Description: as §1, §2, §3, §4, §5, §6, §10, §7

Zea mays = assay: Post-emergence application in field trials, ZEAMX; assay type: in vivo
Description: as §1, §2, §3, §4, §5, §6, §10, §7, §11, §9

Lolium multiflorum = assay: Post-emergence application in field trials, LOLMU; assay type: in vivo; conditions: LOLMU height 20-25 cm, 12.5 g ai/ha
Description: as §1, §2, §3, §4, §5, §6, §9

HORVW = assay: Post-emergence application in field trials, HORVW; assay type: in vivo, Hordeum vulgare; conditions: HORVW height 20-25 cm, 12.5 g ai/ha
Description: as §1, §2, §3, §4, §5, §6, §9

[1] = Table 4.2, DATST growth stage 14-16, height 5-10 cm, 42 DAT, 12.5 g ai/ha
[2] = Table 4.1, ECHCG growth stage 23-30, height 15-20 cm, 7 DAT, 12.5 g ai/ha
[3] = Table 4.1, ZEAMX growth stage 15-16, height 25-30 cm, 7 DAT, 12.5 g ai/ha

## CCOC(=O)COc1ccccc1Oc1nc(-n2c(=O)cc(C(F)(F)F)n(C)c2=O)c(F)cc1Cl [A-1, ethyl 2-[2-[[3-chloro-5-fluoro-6-[3-methyl-2,6-dioxo-4-(trifluoromethyl)pyrimidin-1-yl]-2-pyridyl]oxy]phenoxy]acetate]
Abuthilon theophrasti; Table 3.1, 7 DAT
  % herbicidal activity: 90%
Abuthilon theophrasti; Table 3.2, 21 DAT
  % herbicidal activity: 92%
Abuthilon theophrasti; Table 3.4, 42 DAT
  % herbicidal activity: 90%
Amaranthus hybridus
  % herbicidal activity: 84%
Amaranthus retroflexus
  % herbicidal activity: 70%
Spermacoce latifolia; 25 g ai/ha
  % herbicidal activity: 81%
Spermacoce latifolia; 50 g ai/ha
  % herbicidal activity: 95%
Datura stramonium; Table 2.1, DATST growth stage 14-16, 7 DAT, 18 g ai/ha
  % herbicidal activity: 75%
Datura stramonium; Table 2.3, DATST growth stage 14-16, 21 DAT, 18 g ai/ha
  % herbicidal activity: 70%
Datura stramonium; [1]
  % herbicidal activity: 55%
Datura stramonium; Table 4.2, DATST growth stage 14-16, height 5-10 cm, 42 DAT, 18 g ai/ha
  % herbicidal activity: 70%
Echinochloa crus-galli; Table 2.1, ECHCG growth stage 23-30, 7 DAT, 12.5 g ai/ha
  % herbicidal activity: 30%
Echinochloa crus-galli; Table 2.1, ECHCG growth stage 23-30, 7 DAT, 18 g ai/ha
  % herbicidal activity: 30%
Echinochloa crus-galli; Table 3.1, ECHCG growth stage 23-30, 7 DAT, 18 g ai/ha
  % herbicidal activity: 30%
Echinochloa crus-galli; Table 3.2, ECHCG growth stage 23-30, 21 DAT, 12.5 g ai/ha
  % herbicidal activity: 20%
Echinochloa crus-galli; [2]
  % herbicidal activity: 30%
Echinochloa crus-galli; Table 4.1, ECHCG growth stage 23-30, height 15-20 cm, 7 DAT, 18 g ai/ha
  % herbicidal activity: 30%
Echinochloa crus-galli; Table 5.11, 7 DAT, height 15-20 cm, A-1 12.5 g ai/ha
  % herbicidal activity: 30%
Echinochloa crus-galli; Table 5.11, 7 DAT, height 15-20 cm, A-1 18 g ai/ha
  % herbicidal activity: 30%
Euphorbia heterophylla
  % herbicidal activity: 86%
Glycine max; Table 2.1, 7 DAT, 18 g ai/ha
  % herbicidal activity: 80%
Glycine max; Table 2.2, 21 DAT, 12.5 g ai/ha
  % herbicidal activity: 80%
Glycine max; Table 2.2, 21 DAT, 18 g ai/ha
  % herbicidal activity: 80%
Glycine max; Table 2.3, 21 DAT, 12.5 g ai/ha
  % herbicidal activity: 75%
Hordeum vulgare; Table 3.1, 7 DAT, 12.5 g ai/ha
  % herbicidal activity: 70%
Hordeum vulgare; Table 3.1, 7 DAT, 18 g ai/ha
  % herbicidal activity: 80%
Hordeum vulgare; Table 3.2, 21 DAT, 12.5 g ai/ha
  % herbicidal activity: 90%
Ipomoea triloba
  % herbicidal activity: 61%
Setaria verticillata; Table 2.1, 7 DAT
  % herbicidal activity: 60%
Setaria verticillata; Table 3.4, 42 DAT
  % herbicidal activity: 30%
Zea mays; Table 2.1, ZEAMX growth stage 15-16, 7 DAT, 18 g ai/ha
  % herbicidal activity: 85%
Zea mays; Table 3.2, ZEAMX growth stage 15-16, 21 DAT, 18 g ai/ha
  % herbicidal activity: 75%
Zea mays; Table 3.3, ZEAMX growth stage 15-16, 28 DAT, 18 g ai/ha
  % herbicidal activity: 60%
Zea mays; [3]
  % herbicidal activity: 40%
Zea mays; Table 4.1, ZEAMX growth stage 15-16, height 25-30 cm, 7 DAT, 18 g ai/ha
  % herbicidal activity: 50%
Zea mays; Table 5.10, 7 DAT, height 25-30 cm, A-1 12.5 g ai/ha
  % herbicidal activity: 85%
Zea mays; Table 5.10, 7 DAT, height 25-30 cm, A-1 18 g ai/ha
  % herbicidal activity: 85%
Zea mays; Table 5.11, 7 DAT, height 25-30 cm, A-1 12.5 g ai/ha
  % herbicidal activity: 85%
Zea mays; Table 5.11, 7 DAT, height 25-30 cm, A-1 18 g ai/ha
  % herbicidal activity: 85%
Zea mays; Table 5.12, 7 DAT, height 25-30 cm, A-1 12.5 g ai/ha
  % herbicidal activity: 85%
Zea mays; Table 5.12, 7 DAT, height 25-30 cm, A-1 18 g ai/ha
  % herbicidal activity: 85%

## CC(C)N(C)S(=O)(=O)NC(=O)c1cc(-n2c(=O)cc(C(F)(F)F)n(C)c2=O)c(F)cc1Cl [C-1, saflufenacil]
Datura stramonium; [1]
  % herbicidal activity: 40%
Echinochloa crus-galli; [2]
  % herbicidal activity: 20%
Echinochloa crus-galli; Table 5.11, 7 DAT, height 15-20 cm, C-1 12.5 g ai/ha
  % herbicidal activity: 20%
Lolium multiflorum; Table 5.1, 7 DAT
  % herbicidal activity: 20%
Lolium multiflorum; Table 5.8, 21 DAT
  % herbicidal activity: 20%
Zea mays; [3]
  % herbicidal activity: 0%
Zea mays; Table 5.11, 7 DAT, height 25-30 cm, C-1 12.5 g ai/ha
  % herbicidal activity: 8%
Zea mays; Table 5.7, ZEAMX height 25-30 cm, 7 DAT, 12.5 g ai/ha
  % herbicidal activity: 8%
Zea mays; Table 5.8, ZEAMX height 25-30 cm, 21 DAT, 12.5 g ai/ha
  % herbicidal activity: 2%
Zea mays; Table 5.9, ZEAMX height 25-30 cm, 28 DAT, 12.5 g ai/ha
  % herbicidal activity: 0%
HORVW; Table 5.2, 21 DAT
  % herbicidal activity: 0%
HORVW; Table 5.3, 28 DAT
  % herbicidal activity: 0%
HORVW; Table 5.8, 21 DAT
  % herbicidal activity: 0%
